{"source": "patent US20240032546A1", "about": "“BRASSICA SEED MEAL (BSM)-BASED BIO-HERBICIDE FOR INHIBITING WEED GERMINATION, AND PREPARATION METHOD AND USE THEREOF” (Institute of Soil Science, CAS, priority 2022, published 2024)", "test_system": "field weeds (Portulaca oleracea L., Bothriochloa ischaemum L., Eleusine indica L., Setaria viridis L., and Amaranthus spinosus L.)", "test": "Field soil test of weed growth and germination inhibition", "format": "in vivo", "conditions": "after 1 week, dazomet 40 g/m2, BSM-based bio-herbicide 0.8 wt %", "description": "Dazomet was added to the field soil at 40 g/m 2 of soil (as a treatment 1). The BSM-based bio-herbicide (Example 1) was added to another field soil at 0.8 wt % of the BSM per mu of soil (1 mu=300,000 jin) (as a treatment 2). The same area of field soil without adding any exogenous substances was used as a control. After 1 week, the weed growth of the two treatments and the control (field weeds included Portulaca oleracea L., Bothriochloa ischaemum L., Eleusine indica L., Setaria viridis L., and Amaranthus spinosus L.) was counted, and the germination inhibition rate of weed seeds was calculated."}
{"smiles": "CN1CSC(=S)N(C)C1", "note": "[dazomet, Dazomet]", "values": [{"measurement": "inhibition rate to the field weeds compared with the control", "result": 86.84, "unit": "%"}, {"measurement": "weight of field weeds", "setting": "control 1.550 kg/m^2", "result": 0.204, "unit": "kg/m^2"}]}
